Pest or weed control, inhibition of growth and melting point data for 13 compounds are collected here from patent publication US20220030867A1 (priority 2018, published 2022).

Series [1] deals with Magnaporthe grisea (Pyricularia oryzae). Kind of series: whole plant or invertebrate. The note with it: foliar, read-out: control of Magnaporthe grisea. It is filed as in vivo, Magnaporthe grisea on rice leaf segments cv. Ballila.
Series [2] has as its system Botryotinia fuckeliana (Botrytis cinerea). The experiment in a line: Botryotinia fuckeliana (Botrytis cinerea) / liquid culture (gray mould). It is filed as cell-based. The note with it: growth inhibition photometrically 3-4 days after application, vs untreated control. How it is done: Botryotinia fuckeliana (Botrytis cinerea)/Liquid Culture (Gray Mould)
Conidia of the fungus from cryogenic storage are directly mixed into nutrient broth (Vogels broth). After placing a (DMSO) solution of test compound into a microtiter plate (96-well format), the nutrient broth containing the fungal spores is added. The test plates are incubated at 24° C. and the inhibition of growth is determined photometrically 3-4 days after application.

For series [3], the system named is Fusarium culmorum. The experiment in a line: microbe, parasite or virus in culture. Type of series: cell-based. The settings on record: read-out: control of Fusarium culmorum.
The test system of series [4] is Glomerella lagenarium (Colletotrichum lagenarium). The experiment in a line: Glomerella lagenarium (Colletotrichum lagenarium) / liquid culture (anthracnose). It is filed as cell-based. The settings on record: Colletotrichum orbiculare, growth inhibition photometrically 3-4 days after application, vs untreated control. Here is the method: Conidia of the fungus from cryogenic storage are directly mixed into nutrient broth (PDB potato dextrose broth). After placing a (DMSO) solution of test compound into a microtiter plate (96-well format), the nutrient broth containing the fungal spores is added. The test plates are incubated at 24° C. and the inhibition of growth is measured photometrically 3-4 days after application.

In series [5] the test system is Fusarium culmorum. The experiment in a line: whole plant or invertebrate. It is filed as in vivo, Fusarium culmorum on wheat spikelets cv. Monsun. The note with it: in Triticum aestivum, read-out: control of Fusarium culmorum.
The subject of series [6] is Monographella nivalis (Microdochium nivale). Kind of series: Monographella nivalis (Microdochium nivale) / liquid culture (foot rot cereals). Type of series: cell-based. The note with it: growth inhibition photometrically 4-5 days after application, vs untreated control. Here is the method:
Monographella nivalis (Microdochium nivale)/Liquid Culture (Foot Rot Cereals)
Conidia of the fungus from cryogenic storage are directly mixed into nutrient broth (PDB potato dextrose broth). After placing a (DMSO) solution of test compound into a microtiter plate (96-well format), the nutrient broth containing the fungal spores is added. The test plates are incubated at 24° C. and the inhibition of growth is determined photometrically 4-5 days after application.

Series [7] deals with Magnaporthe grisea (Pyricularia oryzae). Kind of series: microbe, parasite or virus in culture. It is filed as cell-based. The settings on record: read-out: control of Magnaporthe grisea.
For the next series, the system named is Sclerotinia sclerotiorum. Kind of series: Sclerotinia sclerotiorum / liquid culture (cottony rot). Type of series: cell-based. The note with it: growth inhibition photometrically 3-4 days after application, vs untreated control. Here is the method: Sclerotinia sclerotiorum/Liquid Culture (Cottony Rot)
Mycelia fragments of a newly grown liquid culture of the fungus are directly mixed into nutrient broth (Vogels broth). After placing a (DMSO) solution of test compound into a microtiter plate (96-well format) the nutrient broth containing the fungal material is added. The test plates are incubated at 24° C. and the inhibition of growth is determined photometrically 3-4 days after application.

`Cc1nc2c(F)cccc2cc1NC(=O)C(Cc1ccccc1)CC(C)(C)C` (centres unmarked) [Compound E-97, 2-benzyl-N-(8-fluoro-2-methyl-3-quinolyl)-4,4-dimethyl-pentanamide]: the pest or weed control at 200 ppm (in series [1]; in the series on Fusarium culmorum [5]) was no less than 80% in each case. For the same compound, the inhibition of growth at 200 ppm (in [2]; with Fusarium culmorum [3]; in series [4]; in [6]; in series [7]) was no less than 80% in each case.

Turning to `Cc1c(NC(=O)C(C)(Cc2ccccc2)CC2(C)CC2)cnc2c(F)cccc12` (centres unmarked) [Compound E-100, 2-benzyl-N-(8-fluoro-4-methyl-3-quinolyl)-2-methyl-3-(1-methylcyclopropyl)propanamide], the melting point is 163 to 164 °C. In addition, the pest or weed control at 200 ppm in [1] is no less than 80%. In series [2], this compound showed an inhibition of growth at 200 ppm of no less than 80%. Moreover, the inhibition of growth at 200 ppm with Fusarium culmorum [3] was no less than 80%. The inhibition of growth at 200 ppm in series [4] is no less than 80%. Besides, the pest or weed control at 200 ppm in the series with Fusarium culmorum [5] was no less than 80%. The inhibition of growth at 20 ppm with Sclerotinia sclerotiorum is no less than 80%. The inhibition of growth at 200 ppm in [7] was no less than 80%.

`C=C(Cl)C[C@H](Cc1ccccc1)C(=O)Nc1cnc2c(F)cccc2c1C` [Compound F-28, (2S)-2-benzyl-4-chloro-N-(8-fluoro-4-methyl-3-quinolyl)pent-4-enamide]: the inhibition of growth at 200 ppm (in series [2]; in the series on Fusarium culmorum [3]; in [4]; in series [6]; in series [7]) was no less than 80% in each case. Moreover, the inhibition of growth at 20 ppm in the series with Sclerotinia sclerotiorum is no less than 80%.

In the case of `Cc1nc2c(F)cccc2cc1NC(=O)[C@](C)(Cc1cccc(F)c1)CC(C)C` [Compound F-29, (2S)-N-(8-fluoro-2-methyl-3-quinolyl)-2-[(3-fluorophenyl)methyl]-2,4-dimethyl-pentanamide], the pest or weed control at 200 ppm in series [1] was no less than 80%. Besides, the inhibition of growth at 200 ppm in series [2], in [4], in series [6] and in series [7] was no less than 80% in each case. The inhibition of growth at 20 ppm with Sclerotinia sclerotiorum was no less than 80%.

As for `Cc1nc2c(F)cccc2cc1NC(=O)[C@@](C)(Cc1cccc(F)c1)CC(C)C` [Compound F-30, (2R)-N-(8-fluoro-2-methyl-3-quinolyl)-2-[(3-fluorophenyl)methyl]-2,4-dimethyl-pentanamide], in series [1], the pest or weed control at 200 ppm is no less than 80%. Besides, the inhibition of growth at 200 ppm in series [2], in [4], in series [6] and in series [7] was no less than 80% each time. Besides, the inhibition of growth at 20 ppm in the series with Sclerotinia sclerotiorum is no less than 80%.

Consider `Cc1nc2c(F)cccc2cc1NC(=O)[C@](C)(Cc1cccc(F)c1)CC(F)(F)F` [Compound F-32, (2R)-4,4,4-trifluoro-N-(8-fluoro-2-methyl-3-quinolyl)-2-[(3-fluorophenyl)methyl]-2-methyl-butanamide], for which the pest or weed control at 200 ppm (in series [1]; with Fusarium culmorum [5]) was no less than 80% each time. The inhibition of growth at 200 ppm (in series [2]; in the series on Fusarium culmorum [3]; in series [4]; in series [7]) was no less than 80% throughout. Also, in the series with Sclerotinia sclerotiorum, the inhibition of growth at 20 ppm is no less than 80%.

Take `Cc1nc2c(F)cccc2cc1NC(=O)[C@@H](Cc1ccccc1)CC(C)(C)C` [Compound F-34, (2R)-2-benzyl-N-(8-fluoro-2-methyl-3-quinolyl)-4,4-dimethyl-pentanamide]: the pest or weed control at 200 ppm (in series [1]; in the series on Fusarium culmorum [5]) was no less than 80% each time. The inhibition of growth at 200 ppm (in series [2]; in the series with Fusarium culmorum [3]; in series [4]; in series [6]; in series [7]) was no less than 80% in each case. The compound also had an inhibition of growth at 20 ppm in the series with Sclerotinia sclerotiorum of no less than 80%.

On to `Cc1c(NC(=O)[C@H](Cc2ccccc2)CC(C)(C)C)cnc2c(F)cccc12` [Compound F-35, (2S)-2-benzyl-N-(8-fluoro-4-methyl-3-quinolyl)-4,4-dimethyl-pentanamide], for which the pest or weed control at 200 ppm (in series [1]; with Fusarium culmorum [5]) was no less than 80% each time. Besides, the inhibition of growth at 200 ppm (in [2]; in the series on Fusarium culmorum [3]; in [4]; in series [6]; in [7]) was no less than 80% in each case.

As to `Cc1c(NC(=O)[C@@H](Cc2ccccc2)CC(C)(C)C)cnc2c(F)cccc12` [Compound F-36, (2R)-2-benzyl-N-(8-fluoro-4-methyl-3-quinolyl)-4,4-dimethyl-pentanamide], the pest or weed control at 200 ppm (in series [1]; in the series with Fusarium culmorum [5]) was no less than 80% in each case. Besides, the inhibition of growth at 200 ppm (in [2]; in the series with Fusarium culmorum [3]; in series [4]; in series [6]; in series [7]) was no less than 80% each time. In the series with Sclerotinia sclerotiorum, this compound yielded an inhibition of growth at 20 ppm of no less than 80%.

Consider `Cc1nc2c(F)cccc2cc1NC(=O)[C@@H](Cc1ccccc1)CC1(C)CC1` [Compound F-38, (2R)-2-benzyl-N-(8-fluoro-2-methyl-3-quinolyl)-3-(1-methylcyclopropyl)propanamide], for which the inhibition of growth at 200 ppm (in series [2]; with Fusarium culmorum [3]; in series [4]; in [6]; in series [7]) was no less than 80% in each case. Besides, the pest or weed control at 200 ppm in the series with Fusarium culmorum [5] is no less than 80%. This compound also showed an inhibition of growth at 20 ppm with Sclerotinia sclerotiorum of no less than 80%.

On to `C=C(Cl)C[C@](C)(Cc1ccccc1)C(=O)Nc1cnc2c(F)cccc2c1C` [Compound F-41, (2S)-2-benzyl-4-chloro-N-(8-fluoro-4-methyl-3-quinolyl)-2-methyl-pent-4-enamide], for which the pest or weed control at 200 ppm (in series [1]; in the series with Fusarium culmorum [5]) was no less than 80% each time. The inhibition of growth at 200 ppm in series [2], in series [4] and in series [6] was no less than 80% in each case. For the same compound, the inhibition of growth at 20 ppm with Sclerotinia sclerotiorum is no less than 80%.

Regarding `C=C(Cl)C[C@@](C)(Cc1ccccc1)C(=O)Nc1cnc2c(F)cccc2c1C` [Compound F-42, (2R)-2-benzyl-4-chloro-N-(8-fluoro-4-methyl-3-quinolyl)-2-methyl-pent-4-enamide], the pest or weed control at 200 ppm (in series [1]; in the series with Fusarium culmorum [5]) was no less than 80% each time. Further, the inhibition of growth at 200 ppm (in series [2]; in the series with Fusarium culmorum [3]; in [4]; in series [6]; in series [7]) was no less than 80% throughout. In addition, the inhibition of growth at 20 ppm in the series with Sclerotinia sclerotiorum is no less than 80%.

Turning to `C=C(Cl)C[C@](C)(Cc1ccccc1)C(=O)Nc1cc2cccc(F)c2nc1C` [Compound F-44, (2S)-2-benzyl-4-chloro-N-(8-fluoro-2-methyl-3-quinolyl)-2-methyl-pent-4-enamide], the pest or weed control at 200 ppm (in series [1]; in the series with Fusarium culmorum [5]) was no less than 80% each time. Further, the inhibition of growth at 200 ppm (in [2]; in the series with Fusarium culmorum [3]; in series [4]; in series [6]; in series [7]) was no less than 80% throughout. Besides, the inhibition of growth at 20 ppm in the series on Sclerotinia sclerotiorum is no less than 80%.

What is called melting point is the temperature, or range, at which the solid turns liquid.
